Laboratory results from PMC8138579, “Screening of Anti-Lipase Components of Artemisia argyi Leaves Based on Spectrum-Effect Relationships and HPLC-MS/MS” (Frontiers in Pharmacology, 2021).

Target: T1, Porcine pancreatic lipase (type II) (Sus scrofa, UniProt P00591)
T1 construct: gene PNLIP; native commercial porcine pancreas preparation (Sigma-Aldrich, type II), no added colipase stated; human 1LPA used only for docking
T1 sequence (P00591 1-450): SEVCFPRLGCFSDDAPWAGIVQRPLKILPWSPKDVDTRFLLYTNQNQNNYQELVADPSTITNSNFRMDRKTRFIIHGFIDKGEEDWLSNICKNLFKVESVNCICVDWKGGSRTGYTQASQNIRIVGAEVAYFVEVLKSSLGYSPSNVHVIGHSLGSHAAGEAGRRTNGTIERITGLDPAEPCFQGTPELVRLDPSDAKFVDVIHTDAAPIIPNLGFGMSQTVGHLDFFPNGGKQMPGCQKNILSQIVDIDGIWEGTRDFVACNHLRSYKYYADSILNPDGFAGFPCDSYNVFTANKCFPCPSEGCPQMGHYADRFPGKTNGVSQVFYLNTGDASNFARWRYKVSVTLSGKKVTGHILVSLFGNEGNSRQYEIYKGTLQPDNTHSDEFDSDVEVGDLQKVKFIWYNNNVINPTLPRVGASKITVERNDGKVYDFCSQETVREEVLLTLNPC
Assay: fluorometric lipase assay, 4-methylumbelliferone release
Assay type: biochemical
Source text: fluorometric lipase assay, 4-methylumbelliferone release on Porcine pancreatic lipase (type II) | IC50 values of neochlorogenic acid, chlorogenic acid, isochlorogenic acid B and isochlorogenic acid A

For `O=C(/C=C/c1ccc(O)c(O)c1)O[C@H]1[C@H](O)C[C@](O)(C(=O)O)C[C@H]1OC(=O)/C=C/c1ccc(O)c(O)c1` [P7, isochlorogenic acid B], the IC50 was 234 µM.
Compound `O=C(/C=C/c1ccc(O)c(O)c1)O[C@@H]1C[C@](O)(C(=O)O)C[C@@H](OC(=O)/C=C/c2ccc(O)c(O)c2)[C@H]1O` [P8, isochlorogenic acid A] has an IC50 of 157 µM.
`O=C(/C=C/c1ccc(O)c(O)c1)O[C@@H]1C[C@@](O)(C(=O)O)C[C@@H](O)[C@@H]1O` [P1, neochlorogenic acid] showed an IC50 of 429 µM.
With `O=C(/C=C/c1ccc(O)c(O)c1)O[C@@H]1C[C@](O)(C(=O)O)C[C@@H](O)[C@H]1O` [P3, chlorogenic acid] the IC50 was 322 µM.
